The results in this text go back to ChEMBL document CHEMBL1201862, “PubChem BioAssay data set” (2004).

Test systems include IGROV-1; PC-3; SF-539; SK-MEL-2; MOLT-4; SW-620; SNB-75; CAKI-1; HCC 2998; ACHN; OVCAR-8; M14; MDA-N; SN12C; BT-549; NCI/ADR-RES; OVCAR-3; RXF 393; UACC-257.
Common to all, as to assay: growth of human tumour cells (NCI), 48 h

SMILES strings stand for the structures.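 Dose response: 5 concentrations. Exposure: 48 h. Format: 96-well plates. Endpoint: linear interpolation; highest concentration if not reached. Here, GI50 denotes the concentration required for 50% inhibition of growth.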 Activity calls are given as the source filed them. Rule as the data show it: active = GI50 up to about 1.1 µM and inactive = higher.

Take `O=C(OCC(OC(=O)c1ccccc1)C1CC(C2(O)CCCCC2)C(=O)O1)c1ccccc1` (centres undefined): the GI50 in the assay with IGROV-1 is > 25 µM (inactive); in the assay on PC-3 it was > 25 µM (inactive); with SF-539 it was > 25 µM (inactive); in the assay with SK-MEL-2, > 25 µM (inactive); with MOLT-4 it was 6.64 µM (inactive); with SW-620 it was > 25 µM (inactive). Also, the GI50 is 15.7 µM (inactive) in the assay with SNB-75; > 25 µM (inactive) in the assay with CAKI-1; > 25 µM (inactive) in the assay with HCC 2998; > 25 µM (inactive) in the assay with ACHN; > 25 µM (inactive) with OVCAR-8; > 25 µM (inactive) in the assay with M14. The GI50 with MDA-N is > 25 µM (inactive); with SN12C, > 25 µM (inactive); with BT-549, 0.478 µM (active); with NCI/ADR-RES, > 25 µM (inactive); in the assay on OVCAR-3, > 25 µM (inactive); with RXF 393, > 25 µM (inactive). For the same compound, the GI50 in the assay with UACC-257 was > 25 µM (inactive).

With `Cc1c(Cl)ccc2c1NC(=O)C2(O)CC(=O)c1ccc(Cl)cc1Cl` (centres undefined), the GI50 with IGROV-1 was > 50 µM (inactive); with PC-3 it was > 50 µM (inactive); in the assay on SF-539, 17.7 µM (inactive); in the assay with SK-MEL-2, > 50 µM (inactive); in the assay with MOLT-4, 22.5 µM (inactive); in the assay on SW-620, > 50 µM (inactive). For the same compound, the GI50 was 12.8 µM (inactive) in the assay with SNB-75; > 28.7 µM (inactive) in the assay with CAKI-1; > 50 µM (inactive) in the assay on HCC 2998; 36.7 µM (inactive) with ACHN; > 50 µM (inactive) in the assay with OVCAR-8; > 50 µM (inactive) in the assay with M14. In addition, the GI50 in the assay with MDA-N was > 50 µM (inactive); in the assay with SN12C, > 50 µM (inactive); with BT-549, > 50 µM (inactive); in the assay on NCI/ADR-RES, > 50 µM (inactive); with OVCAR-3 it was > 46.7 µM (inactive); with RXF 393, 20.1 µM (inactive). The GI50 with UACC-257 is > 50 µM (inactive).

Consider `Cc1ccc(/N=N/C(=N/NC(=O)c2cc(Cl)ccc2C(=O)c2ccccc2)c2ccc(N(CCC#N)CCC#N)cc2C)cc1`, for which the GI50 is 7.59 µM (inactive) in the assay on IGROV-1; 7.24 µM (inactive) in the assay on PC-3; 1.34 µM (inactive) with SK-MEL-2; 4.99 µM (inactive) in the assay on MOLT-4; 21.2 µM (inactive) in the assay on SW-620; 18.2 µM (inactive) in the assay on SNB-75. Besides, the GI50 in the assay on CAKI-1 was 20.4 µM (inactive); with HCC 2998 it was 13.8 µM (inactive); in the assay on ACHN it was 22 µM (inactive); in the assay on OVCAR-8 it was 11 µM (inactive); in the assay with M14, 11.8 µM (inactive); in the assay with MDA-N, 17 µM (inactive). For the same compound, the GI50 was 9.75 µM (inactive) with SN12C; 15.4 µM (inactive) in the assay on BT-549; 21.1 µM (inactive) with NCI/ADR-RES; 3.01 µM (inactive) with OVCAR-3; 0.0957 µM (active) in the assay on RXF 393; 15.9 µM (inactive) in the assay with UACC-257.

For the compound `CCOC(=O)Nn1c(C)nnc1-c1ccccc1`, the GI50 in the assay on IGROV-1, in the assay with PC-3, with SF-539, in the assay with SK-MEL-2, in the assay with MOLT-4 and in the assay with SW-620 was > 100 µM (inactive) throughout. Moreover, the GI50 in the assay on CAKI-1, in the assay with HCC 2998, with ACHN, with OVCAR-8, with M14 and with MDA-N was > 100 µM (inactive) each time. In addition, the GI50 in the assay with SN12C, in the assay with BT-549, in the assay with NCI/ADR-RES, in the assay on OVCAR-3, in the assay with RXF 393 and in the assay with UACC-257 was > 100 µM (inactive) each time.
